According to patent publication US20250019387A1 (Frontier Medicines Corporation, priority 0001, published 2025):

The compounds below were run against KRAS G12C and cRAF (Ras-binding domain) interaction (Homo sapiens (Human), UniProt P01116, C118S/C51S/C80L/G12C) (assay: Inhibition of KRAS G12C and cRAF binding (AlphaScreen)). Conditions: GMPPNP-loaded KRAS G12C, 19-20 hours incubation with compound; read-out: IC50 (Inhibition of KRAS G12C and cRAF Binding).
Outline: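 IC50 values come from 4-parameter nonlinear regression of AlphaScreen signal (680 nm excitation, 570 nm emission). Compound plates sat 19-20 h at room temperature before RBD and donor/acceptor beads were added in Hepes pH 7.4 buffer with 150 mM NaCl, 5 mM MgCl2, 2% DMSO for 60-90 min; biotin-AviTag-GST replaced RBD to flag assay-technology interferers.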

Sequence of KRAS G12C and cRAF (Ras-binding domain) interaction (P01116 other isoform, or with tags, fused parts or gaps G12C/C51S/C80L/C118S): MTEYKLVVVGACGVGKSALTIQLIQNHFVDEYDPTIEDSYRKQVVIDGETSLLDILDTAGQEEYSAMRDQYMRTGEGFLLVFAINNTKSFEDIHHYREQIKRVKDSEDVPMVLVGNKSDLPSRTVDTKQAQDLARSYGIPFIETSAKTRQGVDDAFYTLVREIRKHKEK

IC50 [nM]	Structure (SMILES)
10 to 100	Cc1nccc(/C=C/C(=O)N2CC(CN(C)c3nc(OC[C@@]45CCCN4C[C@H](F)C5)nc4c(F)c(-c5cccc6ccc(F)c(Cl)c56)ncc34)C2)n1 [Example 68, (E)-1-(3-(((7-(8-chloro-7-fluoronaphthalen-1-yl)-8-fluoro-2-(((2R,7aS)-2-fluorotetrahydro-1H-pyrrolizin-7a(5H)-yl)methoxy)pyrido[4,3-d]pyrimidin-4-yl)(methyl)amino)methyl)azetidin-1-yl)-3-(2-methylpyrimidin-4-yl)prop-2-en-1-one]
10 to 100	C=CC(=O)N1C[C@H](F)[C@@H](N(C)c2nc(OCC34CCCN3CCC4)nc3c(F)c(-c4cccc5ccc(F)c(Cl)c45)ncc23)C1 [Example 237, 1-((3S,4S)-3-((7-(8-chloro-7-fluoronaphthalen-1-yl)-8-fluoro-2-((tetrahydro-1H-pyrrolizin-7a(5H)-yl)methoxy)pyrido[4,3-d]pyrimidin-4-yl)(methyl)amino)-4-fluoropyrrolidin-1-yl)prop-2-en-1-one]
100 to 500	CCc1c(F)ccc2cccc(-c3ncc4c(N(C)[C@@H]5CCN(C(=O)/C=C/c6ccnc(C)n6)C5)nc(OC[C@@]56CCCN5C[C@H](F)C6)nc4c3F)c12 [Example 277, (E)-1-((R)-3-((7-(8-ethyl-7-fluoronaphthalen-1-yl)-8-fluoro-2-(((2R,7aS)-2-fluorohexahydro-1H-pyrrolizin-7a-yl)methoxy)pyrido[4,3-d]pyrimidin-4-yl)(methyl)amino)pyrrolidin-1-yl)-3-(2-methylpyrimidin-4-yl)prop-2-en-1-one]
10 to 100	CCN1CC[C@@H]1/C=C/C(=O)N1CC[C@@H](N(C)c2nc(OC[C@@]34CCCN3C[C@H](F)C4)nc3c(F)c(-c4cccc5cccc(Cl)c45)ncc23)C1 [Example 223, (E)-1-((R)-3-((7-(8-chloronaphthalen-1-yl)-8-fluoro-2-(((2R,7aS)-2-fluorotetrahydro-1H-pyrrolizin-7a(5H)-yl)methoxy)pyrido[4,3-d]pyrimidin-4-yl)(methyl)amino)pyrrolidin-1-yl)-3-((R)-1-ethylazetidin-2-yl)prop-2-en-1-one]
100 to 500	C=CC(=O)N1CC(F)(CN(C)c2nc(OC[C@@]34CCCN3C[C@H](F)C4)nc3c(F)c(-c4cccc5ccc(F)c(Cl)c45)ncc23)C1 [Example 60, 1-(3-(((7-(8-chloro-7-fluoronaphthalen-1-yl)-8-fluoro-2-(((2R,7aS)-2-fluorotetrahydro-1H-pyrrolizin-7a(5H)-yl)methoxy)pyrido[4,3-d]pyrimidin-4-yl)(methyl)amino)methyl)-3-fluoroazetidin-1-yl)prop-2-en-1-one]
100 to 500	Cc1c(F)ccc2c(-c3ncc4c(N(C)[C@@H]5CCN(C(=O)/C=C/CN(C)C)C5)nc(OC[C@@]56CCCN5C[C@H](F)C6)nc4c3F)cccc12 [Example 281, (E)-4-(dimethylamino)-1-((R)-3-((8-fluoro-7-(6-fluoro-5-methylnaphthalen-1-yl)-2-(((2R,7aS)-2-fluorotetrahydro-1H-pyrrolizin-7a(5H)-yl)methoxy)pyrido[4,3-d]pyrimidin-4-yl)(methyl)amino)pyrrolidin-1-yl)but-2-en-1-one]
10 to 100	COC(=O)/C=C/C(=O)NCCN(C)c1nc(OC[C@@H]2CCCN2C)nc2c1CCN(c1cccc3ccc(F)c(Cl)c13)C2 [Example 1, methyl(S,E)-4-((2-((7-(8-chloro-7-fluoronaphthalen-1-yl)-2-((1-methylpyrrolidin-2-yl)methoxy)-5,6,7,8-tetrahydropyrido[3,4-d]pyrimidin-4-yl)(methyl)amino)ethyl)amino)-4-oxobut-2-enoate]
< 10	CN1CCC[C@H]1COc1nc2c(c(N(C)[C@H]3CCN(C(=O)/C=C/S(C)(=O)=O)C3)n1)CCN(c1cccc3cccc(Cl)c13)C2 [Example 15, (E)-1-((S)-3-((7-(8-chloronaphthalen-1-yl)-2-(((S)-1-methylpyrrolidin-2-yl)methoxy)-5,6,7,8-tetrahydropyrido[3,4-d]pyrimidin-4-yl)(methyl)amino)pyrrolidin-1-yl)-3-(methylsulfonyl)prop-2-en-1-one]
100 to 500	Cc1nccc(/C=C/C(=O)N2C[C@H](F)[C@@H](N(C)c3nc(OC[C@@]45CCCN4C[C@H](F)C5)nc4c(F)c(-c5cccc6cccc(Cl)c56)ncc34)C2)n1 [Example 216, (E)-1-((3S,4S)-3-((7-(8-chloronaphthalen-1-yl)-8-fluoro-2-(((2R,7aS)-2-fluorotetrahydro-1H-pyrrolizin-7a(5H)-yl)methoxy)pyrido[4,3-d]pyrimidin-4-yl)(methyl)amino)-4-fluoropyrrolidin-1-yl)-3-(2-methylpyrimidin-4-yl)prop-2-en-1-one]
10 to 100	C=CC(=O)CN(C)c1nc(OC[C@@H]2CCCN2C)nc2c1CCN(c1cccc3cccc(Cl)c13)C2 [Example 40, (S)-1-((7-(8-chloronaphthalen-1-yl)-2-((1-methylpyrrolidin-2-yl)methoxy)-5,6,7,8-tetrahydropyrido[3,4-d]pyrimidin-4-yl)(methyl)amino)but-3-en-2-one]
< 10	COC(=O)/C=C/C(=O)N1CCC(N(C)c2nc(OC[C@@H]3CCCN3C)nc3c(F)c(-c4cccc5cccc(Cl)c45)ncc23)C1 (stereo partly drawn) [Example 24, methyl(E)-4-(3-((7-(8-chloronaphthalen-1-yl)-8-fluoro-2-(((S)-1-methylpyrrolidin-2-yl)methoxy)pyrido[4,3-d]pyrimidin-4-yl)(methyl)amino)pyrrolidin-1-yl)-4-oxobut-2-enoate]
10 to 100	CN(c1nc(OC[C@@]23CCCN2C[C@H](F)C3)nc2c(F)c(-c3cccc4ccc(F)c(Cl)c34)ncc12)[C@@H]1CCN(C(=O)/C=C/[C@H]2CCN2CC2COC2)C1 [Example 213, (E)-1-((R)-3-((7-(8-chloro-7-fluoronaphthalen-1-yl)-8-fluoro-2-(((2R,7aS)-2-fluorotetrahydro-1H-pyrrolizin-7a(5H)-yl)methoxy)pyrido[4,3-d]pyrimidin-4-yl)(methyl)amino)pyrrolidin-1-yl)-3-((R)-1-(oxetan-3-ylmethyl)azetidin-2-yl)prop-2-en-1-one]
< 10	CN1CCC[C@H]1COc1nc2c(c(N(C)[C@@H]3CCN(C(=O)/C=C/S(C)(=O)=O)C3)n1)CCN(c1cccc3cccc(Cl)c13)C2 [Example 9, (E)-1-((R)-3-((7-(8-chloronaphthalen-1-yl)-2-(((S)-1-methylpyrrolidin-2-yl)methoxy)-5,6,7,8-tetrahydropyrido[3,4-d]pyrimidin-4-yl)(methyl)amino)pyrrolidin-1-yl)-3-(methylsulfonyl)prop-2-en-1-one]
< 10	CN(c1nc(OCC23CCCN2CCC3)nc2c(F)c(-c3cccc4cccc(Cl)c34)ncc12)[C@@H]1CCN(C(=O)/C=C/c2nc(C3COC3)no2)C1 [Example 155, (R,E)-1-(3-((7-(8-chloronaphthalen-1-yl)-8-fluoro-2-((tetrahydro-1H-pyrrolizin-7a(5H)-yl)methoxy)pyrido[4,3-d]pyrimidin-4-yl)(methyl)amino)pyrrolidin-1-yl)-3-(3-(oxetan-3-yl)-1,2,4-oxadiazol-5-yl)prop-2-en-1-one]
10 to 100	CN(c1nc(OC[C@@]23CCCN2C[C@H](F)C3)nc2c(F)c(-c3cccc4cccc(Cl)c34)ncc12)[C@@H]1CCN(C(=O)C#CC2CCNC2)C1 (stereo partly drawn) [Example 58, 1-((R)-3-((7-(8-chloronaphthalen-1-yl)-8-fluoro-2-(((2R,7aS)-2-fluorohexahydro-1H-pyrrolizin-7a-yl)methoxy)pyrido[4,3-d]pyrimidin-4-yl)(methyl)amino)pyrrolidin-1-yl)-3-(pyrrolidin-3-yl)prop-2-yn-1-one]

Structure (SMILES)	IC50 [nM]
CN1CC[C@@H]1/C=C/C(=O)N1C[C@H](F)[C@@H](N(C)c2nc(OC[C@@]34CCCN3C[C@H](F)C4)nc3c(F)c(-c4cccc5ccc(F)c(F)c45)ncc23)C1 [Example 199, (E)-1-((3S,4S)-3-((7-(7,8-difluoronaphthalen-1-yl)-8-fluoro-2-(((2R,7aS)-2-fluorotetrahydro-1H-pyrrolizin-7a(5H)-yl)methoxy)pyrido[4,3-d]pyrimidin-4-yl)(methyl)amino)-4-fluoropyrrolidin-1-yl)-3-((R)-1-methylazetidin-2-yl)prop-2-en-1-one]	< 10

Same assay, conditions: additional exemplary compounds; KRAS G12C and cRAF binding; read-out: RAF1 RBD IC50

IC50 [nM]	Structure (SMILES)
> 500	CN(CC1CN(C#N)C1)c1nc(OC[C@@H]2CCCN2C)nc2c(F)c(-c3cccc4cccc(Cl)c34)ncc12
> 500	CN(c1nc(OCC23CCCN2CCC3)nc2c(F)c(-c3cccc4cccc(Cl)c34)ncc12)[C@@H]1CCN(C(=O)/C=C/c2cn(C)nn2)C1
100 to 500	CN(C)C/C=C/C(=O)N1CCC(N(C)c2nc(OC[C@@H]3CCCN3C)nc3c2CCN(c2cccc4cccc(Cl)c24)C3)C1 (stereo partly drawn)
> 500	C=CC(=O)N1CC[C@H]1CN(C)c1nc(OC[C@@]23CCCN2C[C@H](F)C3)nc2c(F)c(-c3cccc4cccc(Cl)c34)ncc12
> 500	C=CC(=O)N1CC[C@H](F)[C@@H](N(C)c2nc(OC[C@@]34CCCN3C[C@H](F)C4)nc3c(F)c(-c4cccc5cccc(Cl)c45)ncc23)C1
> 500	C=CC(=O)N1CCC(N(C)c2nc(OCC34CCCN3CCC4)nc3c2CCN(c2cccc4cccc(Cl)c24)C3)C1CC#N (stereo not drawn)
10 to 100	CN(C)C/C=C/C(=O)N1CC[C@@H](N(C)c2nc(OC[C@@H]3CCCN3C)nc3c(F)c(-c4cccc5ccc(F)c(Cl)c45)ncc23)C1
> 500	C=CC(=O)N1CC[C@H](Nc2nc(OC[C@@]34CCCN3C[C@H](F)C4)nc3c(F)c(-c4cccc5cccc(Cl)c45)ncc23)C1
10 to 100	CN(C)C/C=C/S(=O)(=O)CCN(C)c1nc(OC[C@@H]2CCCN2C)nc2c(F)c(-c3cccc4ccc(F)c(Cl)c34)ncc12
100 to 500	C=CC(=O)N1CC(CN(C)c2nc(OC[C@]34CCCN3C[C@H](F)C4)nc3c2CCN(c2cccc4cccc(Cl)c24)C3)C1

Structure (SMILES)	IC50 [nM]
Cc1nccc(/C=C/C(=O)N2C[C@H]3CC[C@@H](C2)N3c2nc(OC[C@@]34CCCN3C[C@H](F)C4)nc3c(F)c(-c4cccc5cccc(Cl)c45)ncc23)n1	> 500
